# Reference: US20160376286A1, “Pyrimidin-4-one derivatives and their use in the tratement, amelioration or prevention of a viral disease” (priority 2011, published 2016)
# Where two headings read alike, the source gives them in different places.
# System: influenza A virus A/Aichi/2/68 (H3N2)
# Assay: Cytopathic effect (CPE) assay H3N2 in MDCK cells
# Format: cell-based, influenza A virus (A/Aichi/2/68 (H3N2)); MDCK cells
# Conditions: for inhibition at 50 µM: Influenza A virus, H3N2, MDCK, read-out: CPE H3N2 reduction (%)
# Experimental: A possible measure of the […] antiviral activity of the compounds having the formula I or II is the CPE assay disclosed herein. […] In this connection, the reduction in the virus-mediated cytopathic effect (CPE) upon treatment with the compounds was calculated as follows: The cell viability of infected-treated and uninfected-treated cells was determined using an ATP-based cell viability assay (Promega). The response in relative luminescent units (RLU) of infected-untreated samples was subtracted from the response (RLU) of the infected-treated samples and then normalized to the viability of the corresponding uninfected sample resulting in % CPE reduction.
# The influenza A virus (IAV) was obtained from American Tissue Culture Collection (A/Aichi/2/68 (H3N2); VR-547). Virus stocks were prepared by propagation of virus on Mardin-Darby canine kidney (MDCK; ATCC CCL-34) cells and infectious titres of virus stocks were determined by the 50% tissue culture infective dose (TCID50) analysis as described in Reed, L. J., and H. Muench. 1938, Am. J. Hyg. 27:493-497.
# MDCK cells were seeded in 96-well plates at 2×10^4 cells/well using DMEM/Ham's F-12 (1:1) medium containing 10% foetal bovine serum (FBS), 2 mM L-glutamine and 1% antibiotics (all from PAA). Until infection the cells were incubated for 5 hrs at 37° C., 5.0% CO2 to form a -80% confluent monolayer on the bottom of the well. Each test compound was dissolved in DMSO and generally tested at 25 μM and 250 μM. In those cases where the compounds were not soluble at that concentration they were tested at the highest soluble concentration. The compounds were diluted in infection medium (DMEM/Ham's F-12 (1:1) containing 5 μg/ml trypsin, and 1% antibiotics) for a final plate well DMSO concentration of 1%. The virus stock was diluted in infection medium (DMEM/Ham's F-12 (1:1) containing 5 μg/m1Trypsin, 1% DMSO, and 1% antibiotics) to a theoretical multiplicity of infection (M01) of 0.05.
# After removal of the culture medium and one washing step with PBS, virus and compound were added together to the cells. In the wells used for cytotoxicity determination (i.e. in the absence of viral infection), no virus suspension was added. Instead, infection medium was added. Each treatment was conducted in two replicates. After incubation at 37° C., 5% CO2 for 48 hrs, each well was observed microscopically for apparent cytotoxicity, precipitate formation, or other notable abnormalities. Then, cell viability was determined using
# CellTiter-Glo luminescent cell viability assay (Promega). The supernatant was removed carefully and 65 μl of the reconstituted reagent were added to each well and incubated with gentle shaking for 15 min at room temperature. Then, 60 μl of the solution was transferred to an opaque plate and luminescence (RLU) was measured using Synergy HT plate reader (Biotek).
# Relative cell viability values of uninfected-treated versus uninfected-untreated cells were used to evaluate cytotoxicity of the compounds. Substances with a relative viability below 80% at the tested concentration were regarded as cytotoxic and retested at lower concentrations.
# Reduction in the virus-mediated cytopathic effect (CPE) upon treatment with the compounds was calculated as follows: The response (RLU) of infected-untreated samples was subtracted from the response (RLU) of the infected-treated samples and then normalized to the viability of the corresponding uninfected sample resulting in % CPE reduction.
smiles,measurement,setting,value
Cl.O=C(NO)c1cc(N2CCCCC2)ccn1,CPE H3N2 reduction (%),activity conc 5,−4.1%
CCONC(=O)c1cc(N2CCOCC2)ccn1.Cl,CPE H3N2 reduction (%),activity conc 50 (μM),1.3%
CCONC(=O)c1cc(N)ccn1.Cl,CPE H3N2 reduction (%),activity conc 50 (μM),10.5%
CCONC(=O)c1ccccn1,CPE H3N2 reduction (%),activity conc 50 (μM),12.5%
CCONC(=O)c1ccc2ccccc2n1,CPE H3N2 reduction (%),activity conc 50 (μM),−2.2%
CCONC(=O)c1ccc(-c2cccc(CN(C)CCCc3ccccc3)c2)cn1.Cl,CPE H3N2 reduction (%),activity conc 20,1.6%
CCONC(=O)c1cc(NCc2cccc(OCc3ccccc3)c2)ccn1.Cl,CPE H3N2 reduction (%),activity conc 1,1.2%
O=C(NOCc1ccccc1)c1ccc(N2CCCC2)cn1,CPE H3N2 reduction (%),activity conc 20,−8.7%
O=C(c1ccc(N2CCCC2)cn1)N(Cc1ccccc1)OCc1ccccc1,CPE H3N2 reduction (%),activity conc 5,−2.7%
O=C(c1cc2ccccc2cn1)N(Cc1ccccc1)OCc1ccccc1,CPE H3N2 reduction (%),activity conc 5,1.3%
Cc1cccc(-c2ccc(C(=O)N(O)Cc3ccccc3)nc2)c1,CPE H3N2 reduction (%),activity conc 10,15.5%
O=C(NOCc1ccccc1)c1cc2ccccc2cn1,CPE H3N2 reduction (%),activity conc 5,−1.5%
O=C(c1cc2ccccc2cn1)N(O)CCc1ccccc1,CPE H3N2 reduction (%),activity conc 20,−1.8%
O=C(c1cc(N2CCCCC2)ccn1)N(O)CCCc1ccccc1,CPE H3N2 reduction (%),activity conc 2,7.7%
CC(C)c1cccc(-c2ccc(C(=O)NO)nc2)c1,CPE H3N2 reduction (%),activity conc 2,−2.1%
O=C(c1cc2ccccc2cn1)N(O)CCCc1ccccc1,CPE H3N2 reduction (%),activity conc 2,4.4%
CC(C)c1cccc(-c2ccc(C(=O)N(O)CCc3ccccc3)nc2)c1,CPE H3N2 reduction (%),activity conc 2,2.1%
O=C(c1ccc(N2CCCCC2)cn1)N(O)Cc1ccccc1,CPE H3N2 reduction (%),activity conc 5,−3.4%
O=C(c1cc(NS(=O)(=O)Cc2ccccc2)ccn1)N(O)Cc1ccccc1,CPE H3N2 reduction (%),activity conc 50 (μM),6.2%
O=C(c1cc(-c2ccccc2)ccn1)N(O)Cc1ccccc1,CPE H3N2 reduction (%),activity conc 10,−9.3%
O=C(NO)c1cc(N2CCOCC2)ccn1,CPE H3N2 reduction (%),activity conc 50 (μM),−7.1%
O=C(c1cc(NS(=O)(=O)c2ccccc2)ccn1)N(O)Cc1ccccc1,CPE H3N2 reduction (%),activity conc 50 (μM),−5.2%
CN(Cc1ccccc1)c1ccnc(C(=O)N(O)Cc2ccccc2)c1,CPE H3N2 reduction (%),activity conc 5,3.8%
O=C(c1ccc(-c2ccccc2)cn1)N(O)Cc1ccccc1,CPE H3N2 reduction (%),activity conc 12,13.4%
O=C(NO)c1ccc(-c2ccccc2)cn1,CPE H3N2 reduction (%),activity conc 12,21.7%
O=C(NO)c1cc(-c2ccc(Cl)cc2)ccn1,CPE H3N2 reduction (%),activity conc 5,26.6%
C[C@@H]1CN(c2ccnc(C(=O)N(O)Cc3ccccc3)c2)C[C@H](C)O1,CPE H3N2 reduction (%),activity conc 50 (μM),10.5%
O=C(c1cc(-c2ccc(Cl)cc2)ccn1)N(O)Cc1ccccc1,CPE H3N2 reduction (%),activity conc 2,−6.7%
O=C(c1cc(-c2ccc(Cl)c(Cl)c2)ccn1)N(O)Cc1ccccc1,CPE H3N2 reduction (%),activity conc 5,8.1%
NC(=O)c1cccc(-c2ccnc(C(=O)N(O)Cc3ccccc3)c2)c1,CPE H3N2 reduction (%),activity conc 5,−2.7%
CN(C)C1CCN(c2ccnc(C(=O)N(O)Cc3ccccc3)c2)CC1,CPE H3N2 reduction (%),activity conc 50 (μM),12.3%
O=C(c1cc(-c2ccccc2)ccn1)N(O)Cc1ccc(F)cc1,CPE H3N2 reduction (%),activity conc 1,−3.2%
O=C(c1cc(N2CCCC(F)(F)C2)ccn1)N(O)Cc1ccccc1,CPE H3N2 reduction (%),activity conc 50 (μM),8.9%
CN1CCN(c2ccnc(C(=O)N(O)Cc3ccccc3)c2)CC1,CPE H3N2 reduction (%),activity conc 50 (μM),2.4%
O=C(c1cc(N2CCC(N3CCCC3)CC2)ccn1)N(O)Cc1ccccc1,CPE H3N2 reduction (%),activity conc 50 (μM),10.7%
CC(C)(C)OC(=O)NC1CCN(c2ccnc(C(=O)N(O)Cc3ccccc3)c2)CC1,CPE H3N2 reduction (%),activity conc 50 (μM),8.3%
CC(C)(C)OC(=O)N1CC=C(c2ccnc(C(=O)N(O)Cc3ccccc3)c2)CC1,CPE H3N2 reduction (%),activity conc 5,1.2%
CN(C)CCNC(=O)c1cccc(-c2ccnc(C(=O)N(O)Cc3ccccc3)c2)c1,CPE H3N2 reduction (%),activity conc 50 (μM),8.9%
O=C(c1cc(N2CCC(N3CCCCC3)CC2)ccn1)N(O)Cc1ccccc1,CPE H3N2 reduction (%),activity conc 50 (μM),18.8%
NC(=O)c1ccc(-c2ccnc(C(=O)N(O)Cc3ccccc3)c2)cc1,CPE H3N2 reduction (%),activity conc 5,−2.5%
CN(C)S(=O)(=O)c1cccc(-c2ccnc(C(=O)N(O)Cc3ccccc3)c2)c1,CPE H3N2 reduction (%),activity conc 5,−1.8%
NC1CCN(c2ccnc(C(=O)N(O)Cc3ccccc3)c2)CC1,CPE H3N2 reduction (%),activity conc 50 (μM),3.2%
O=C(c1cc(N2CCC3(CC2)OCCO3)ccn1)N(O)Cc1ccccc1,CPE H3N2 reduction (%),activity conc 50 (μM),9.5%
CN(C)C(=O)c1cccc(-c2ccnc(C(=O)N(O)Cc3ccccc3)c2)c1,CPE H3N2 reduction (%),activity conc 50 (μM),5.3%
O=C(c1cc(-c2cccc(CO)c2)ccn1)N(O)Cc1ccccc1,CPE H3N2 reduction (%),activity conc 5,7.7%
CNC(=O)c1cccc(-c2ccnc(C(=O)N(O)Cc3ccccc3)c2)c1,CPE H3N2 reduction (%),activity conc 5,−7.5%
CC(C)(C)OC(=O)N1CCN(c2ccnc(C(=O)N(O)Cc3ccccc3)c2)CC1,CPE H3N2 reduction (%),activity conc 50 (μM),34%
CC1(C)C=C(c2ccnc(C(=O)N(O)Cc3ccccc3)c2)CC(C)(C)N1,CPE H3N2 reduction (%),activity conc 50 (μM),2.8%
Cl.O=C(c1cc(C2CCNCC2)ccn1)N(O)Cc1ccccc1,CPE H3N2 reduction (%),activity conc 50 (μM),−1.4%
Cl.O=C(NO)c1cc(NS(=O)(=O)Cc2ccc(F)cc2)ccn1,CPE H3N2 reduction (%),activity conc 50 (μM),−1.4%
Cl.Cl.O=C(c1cc(N2CCNCC2)ccn1)N(O)Cc1ccccc1,CPE H3N2 reduction (%),activity conc 50 (μM),−4.5%
Cl.O=C(NO)c1cc(NS(=O)(=O)Cc2cccc(F)c2)ccn1,CPE H3N2 reduction (%),activity conc 50 (μM),−2.4%
CN(c1ccnc(C(=O)NO)c1)S(=O)(=O)Cc1ccccc1,CPE H3N2 reduction (%),activity conc 5,−1.7%
O=C(c1cc(C2=CCC3(CC2)OCCO3)ccn1)N(O)Cc1ccccc1,CPE H3N2 reduction (%),activity conc 50 (μM),5.4%
COC1=CC=C(c2ccnc(C(=O)N(O)Cc3ccccc3)c2)CC1,CPE H3N2 reduction (%),activity conc 2,−2.5%
CC(C)(C)OC(=O)N1CCC(c2ccnc(C(=O)N(O)Cc3ccccc3)c2)CC1,CPE H3N2 reduction (%),activity conc 20,31.3%
CC(C)(C)OC(=O)N1C=C(c2ccnc(C(=O)N(O)Cc3ccccc3)c2)CCC1,CPE H3N2 reduction (%),activity conc 2,3.9%
CC(C)(C)OC(=O)N1CCC=C(c2ccnc(C(=O)N(O)Cc3ccccc3)c2)C1,CPE H3N2 reduction (%),activity conc 5,10.2%
O=C(c1cc(C2=CCCCC2)ccn1)N(O)Cc1ccccc1,CPE H3N2 reduction (%),activity conc 1,3.4%
Cl.O=C(c1cc(N2CCC(F)(F)CC2)ccn1)N(O)Cc1ccccc1,CPE H3N2 reduction (%),activity conc 50 (μM),−3.2%
CN1CC=C(c2ccnc(C(=O)N(O)Cc3ccccc3)c2)CC1,CPE H3N2 reduction (%),activity conc 50 (μM),10.6%
Cl.O=C(c1cc(NS(=O)(=O)Cc2ccc(F)cc2)ccn1)N(O)Cc1ccccc1,CPE H3N2 reduction (%),activity conc 50 (μM),−1.1%
Cl.O=C(c1cc(C2=CCCNC2)ccn1)N(O)Cc1ccccc1,CPE H3N2 reduction (%),activity conc 50 (μM),9.5%
CN1CCN(c2ccnc(C(=O)N(C)O)c2)CC1,CPE H3N2 reduction (%),activity conc 50 (μM),2.6%
CN(O)C(=O)c1cc(N2CCOCC2)ccn1,CPE H3N2 reduction (%),activity conc 50 (μM),5.7%
Cl.O=C(c1cc(NS(=O)(=O)Cc2cccc(F)c2)ccn1)N(O)Cc1ccccc1,CPE H3N2 reduction (%),activity conc 50 (μM),9.6%
Cl.O=C(NO)c1cc(NS(=O)(=O)Cc2cc(Cl)cc(Cl)c2)ccn1,CPE H3N2 reduction (%),activity conc 20,28.9%
Cl.O=C(c1cc(N2CCC(F)(F)C2)ccn1)N(O)Cc1ccccc1,CPE H3N2 reduction (%),activity conc 20,4.6%
CC(C)(C)OC(=O)N1C2C=C(c3ccnc(C(=O)N(O)Cc4ccccc4)c3)CC1CC2 (stereo not shown),CPE H3N2 reduction (%),activity conc 2,−5.3%
O=C(NO)c1cc(NS(=O)(=O)Cc2cc(Cl)cc(Cl)c2)ccn1,inhibition at 50 µM,activity conc 50 (μM),9.3%
O=C(NO)c1cc(NS(=O)(=O)Cc2cccc(C(F)(F)F)c2)ccn1,inhibition at 50 µM,activity conc 50 (μM),-5.8%
O=C(NO)c1cc(NS(=O)(=O)Cc2ccccc2Cl)ccn1,inhibition at 50 µM,activity conc 50 (μM),-1.5%
O=C(c1cc(N2CCCCC2)cc[n+]1[O-])N(O)Cc1ccccc1,CPE H3N2 reduction (%),activity conc 5,−1.83%
O=C(NO)c1cc(NS(=O)(=O)Cc2ccc(Cl)cc2)ccn1,inhibition at 50 µM,activity conc 50 (μM),-3.88%
O=C(NO)c1cc(NS(=O)(=O)Cc2cccc(Cl)c2)ccn1,inhibition at 50 µM,,60.1%
O=C(NO)c1cc(NS(=O)(=O)Cc2cccc(Br)c2)ccn1,inhibition at 50 µM,activity conc 50 (μM),2.29%
